Where two headings read alike, the source gives them in different places.
Columns and labels:
HIV-1 [1] = experiment: microbe, parasite or virus in culture; type: cell-based; settings: for inhibition of HIV-1 infectivity: 10 µM
HIV-1 [2] = settings: MT4 cells, reported in 2014; read-out: IC50 HIV-1 infectivity; cited from earlier work
HIV-1 [3] = settings: primary infected cells versus MT4 infected cell lines; cited from earlier work
Ebola Gabon virus = experiment: microbe, parasite or virus in culture; type: cell-based; settings: Zaire ebolavirus, read-out: Ebola virus inhibition (immunohistochemistry, infectious titer)
Marburg virus = experiment: organism not typed; type: cell-based; settings: read-out: Marburg virus inhibition (immunohistochemistry, infectious titer)

## CN(C)c1ccc(Nc2c3ccc(NC(=O)CCN4CCCC4)cc3nc3cc(NC(=O)CCN4CCCC4)ccc23)cc1 [Braco19]
HIV-1 [1]; Human immunodeficiency virus 1, HeLaP4, read-out: IC50 HIV-1 infectivity
  IC50: ~8 µM
HIV-1 [2]
  IC50: ~6 µM
HIV-1 [3]
  antiviral effect in primary infected cells: less efficient with respect to MT4 infected cell lines

## COc1ccc2c(ccc3c2cc2c4ccc(OC)cc4ccc2[n+]3-c2ccccc2)c1.[Cl-] [C031]
HIV-1 [1]
  activity on HIV-1 relative to BRACO-19: at least five time more active
  inhibition of HIV-1 infectivity: Complete inhibition

## c1ccc(-[n+]2c3ccc4ccccc4c3cc3c4ccccc4ccc32)cc1 [C038]
HIV-1 [1]
  inhibition of HIV-1 infectivity: Complete inhibition

## COc1ccc2c(ccc3c2cc2c4ccc(OC)cc4ccc2[n+]3-c2ccc([N+](=O)[O-])cc2)c1 [C0370]
HIV-1 [1]
  activity on HIV-1 relative to BRACO-19: at least five time more active
  selectivity index (SI): 17
  inhibition of HIV-1 infectivity: Complete inhibition

## c1ccc(C[n+]2c3ccc4ccccc4c3cc3c4ccccc4ccc32)cc1 [CO39]
Ebola Gabon virus; 5 μM
  inhibition at 5 µM: ~60%
Ebola Gabon virus; 20 μM
  inhibition at 20 µM: ~100%
Marburg virus; 5 μM
  inhibition at 5 µM: 30%
Marburg virus; 20 μM
  inhibition at 20 µM: ~100%

— patent US20230339862A1, “NOVEL DIBENZOACRIDINIUM DERIVATIVES, THEIR PROCESS OF PREPARATION AND THEIR USE FOR TREATING VIRAL INFECTIONS” (priority 2020, published 2023)
